Test results taken from patent US20140235520A1, “Perfume Compositions” (Givaudan Nederland Services B.V., priority 2005, published 2014).

Legend:
[1] = test system: Escherichia coli ATCC 10536; experiment: Standardised biofilm detachment assay (96 well microtitre plate, crystal violet OD540) in quarter strength GPC base Formula A; type: cell-based; conditions: for Group (PDV class: active / non-active / antagonist to biofilm detachment): ingredient as 1 of 4 equal-weight ingredients (other 3 Group B), perfume 0.25% w/w in quarter strength GPC base Formula A, 20 min 21° C., flavour ingredients classed in toothpaste base
[2] = test system: Escherichia coli ATCC 10536; experiment: Biofilm detachment assay in quarter strength modified transparent silica toothpaste base (Formula B); type: cell-based; conditions: positive control, Example 3
Protocol: The procedure described in example 1(a) was repeated but wherein flavour compositions comprising flavour ingredients from the oral care palette to be tested were prepared. The compositions were added to a modified transparent silica toothpaste base (diluted to quarter strength) together with de-ionised water to produce test mixtures with the composition as set out in Formula B below. [table] A percentage detachment value (PDV) for each test mixture was then calculated using the following formula: PDV=100−([OD540 for Test Mixture÷OD540 for Water Control]×100). […] The PDV scores were therefore adjusted to account for base influences on flavour behaviour and Detachment Index (DI) values quoted for each flavour composition.

| SMILES | Group (PDV class: active / non-active / antagonist to biofilm detachment) [1] | PDV [2] | PDV ([1]; positive control, 2% w/w in deionised water) |
| --- | --- | --- | --- |
| CCC(=O)OC1CC2CC1C1C=CCC21 (stereo not drawn) [tricyclo[5.2.1.0̂{2,6}]dec-4-en-8-yl propanoate] | B (Group B materials that are non-active to biofilm detachment are defined as those having a PDV (as defined above) of less than 9 and greater than 0) |  |  |
| CC1(C)CCCC2(C)C1CCC1(C)OCCC12 (stereo not drawn) [3a,6,6,9a-tetramethyldodecahydronaphtho[2,1-{b}]furan] | B (Group B materials that are non-active to biofilm detachment are defined as those having a PDV (as defined above) of less than 9 and greater than 0) |  |  |
| COc1ccc(CC(C)C=O)cc1 (stereo not drawn) [2-methyl-3-[4-(methyoxy)phenyl]propanal] | C (Group C materials that are antagonistic to biofilm detachment are defined as those having a PDV (as defined above) of less than or equal to 0) |  |  |
| CCCCCCCCCCCCOS(=O)(=O)[O-].[Na+] [SLS, sodium lauryl sulphate, reference compound] |  | about 80% | about 80% |
| CC(=O)C1=C(C)C2CC3(C1)C(C)CCC3C2(C)C (stereo not drawn) [1-(2,6,6,8-tetramethyltricyclo [5.3.1.0̂{1,5}]undec-8-en-9-yl)ethanone] | A (Group A materials that assist biofilm detachment are defined as those having a PDV (as defined above) of at least 9) |  |  |
